According to US10538486B2, “Hydroxamic acid type contrast agent containing radioisotope fluoride, preparation method and application thereof” (Institute of Nuclear Energy Research, Atomic Energy …, priority 2017, dated 2020):

Legend:
Assay type in all cases: biochemical
Settings in all cases: 4 concentrations in DMSO, 30 min at room temperature, fluorescence 355/460 nm, FIG. 5
HDAC3 = molecular target: T1, HDAC3 (Homo sapiens, UniProt O15379); assay: HDAC Fluorometric Assay Kit enzyme activity assay, HDAC3
T1 construct: purchased Enzolifesciences
Description: (§1) To further investigate whether the fluorine-18-hydroxamic acid-based compound is useful as a HDAC inhibitor, the inhibitory effect on HDAC is assayed with the fluorine-19-hydroxamic acid-based compound. The fluorine-18-hydroxamic acid-based compound and the fluorine-19-hydroxamic acid-based compound have the same chemical properties, except that the fluorine-18-hydroxamic acid-based compound has radioactivity, and the fluorine-19-hydroxamic acid-based compound has no radioactivity.
(§2) The fluorine-19-hydroxamic acid-based compound was diluted in dimethyl sulfoxide (DMSO) to give 4 different concentrations. The enzyme activity of various subtypes of HDAC was assayed with a HDAC Fluorometric Assay Kit (available from Enzolifesciences). The fluorine-19-hydroxamic acid-based compound (10 μL) and enzyme (15 μL) were added to a white opaque 96-well plate, and then a substrate (25 μL) was added and incubated for 30 min at room temperature. After incubation, the fluorescence intensity of the 96-well plate was measured on a microplate reader at an excitation wavelength of 355 nm and an emission wavelength of 460 nm, and the fluorescence intensity measured was analyzed by Graph Pad Prism 6 to calculate IC50 (as shown in FIG. 5).

HDAC6 = molecular target: T2, HDAC6 (Homo sapiens, UniProt Q9UBN7); assay: HDAC Fluorometric Assay Kit enzyme activity assay, HDAC6
T2 construct: purchased Enzolifesciences
T2 sequence (Q9UBN7 1-1215): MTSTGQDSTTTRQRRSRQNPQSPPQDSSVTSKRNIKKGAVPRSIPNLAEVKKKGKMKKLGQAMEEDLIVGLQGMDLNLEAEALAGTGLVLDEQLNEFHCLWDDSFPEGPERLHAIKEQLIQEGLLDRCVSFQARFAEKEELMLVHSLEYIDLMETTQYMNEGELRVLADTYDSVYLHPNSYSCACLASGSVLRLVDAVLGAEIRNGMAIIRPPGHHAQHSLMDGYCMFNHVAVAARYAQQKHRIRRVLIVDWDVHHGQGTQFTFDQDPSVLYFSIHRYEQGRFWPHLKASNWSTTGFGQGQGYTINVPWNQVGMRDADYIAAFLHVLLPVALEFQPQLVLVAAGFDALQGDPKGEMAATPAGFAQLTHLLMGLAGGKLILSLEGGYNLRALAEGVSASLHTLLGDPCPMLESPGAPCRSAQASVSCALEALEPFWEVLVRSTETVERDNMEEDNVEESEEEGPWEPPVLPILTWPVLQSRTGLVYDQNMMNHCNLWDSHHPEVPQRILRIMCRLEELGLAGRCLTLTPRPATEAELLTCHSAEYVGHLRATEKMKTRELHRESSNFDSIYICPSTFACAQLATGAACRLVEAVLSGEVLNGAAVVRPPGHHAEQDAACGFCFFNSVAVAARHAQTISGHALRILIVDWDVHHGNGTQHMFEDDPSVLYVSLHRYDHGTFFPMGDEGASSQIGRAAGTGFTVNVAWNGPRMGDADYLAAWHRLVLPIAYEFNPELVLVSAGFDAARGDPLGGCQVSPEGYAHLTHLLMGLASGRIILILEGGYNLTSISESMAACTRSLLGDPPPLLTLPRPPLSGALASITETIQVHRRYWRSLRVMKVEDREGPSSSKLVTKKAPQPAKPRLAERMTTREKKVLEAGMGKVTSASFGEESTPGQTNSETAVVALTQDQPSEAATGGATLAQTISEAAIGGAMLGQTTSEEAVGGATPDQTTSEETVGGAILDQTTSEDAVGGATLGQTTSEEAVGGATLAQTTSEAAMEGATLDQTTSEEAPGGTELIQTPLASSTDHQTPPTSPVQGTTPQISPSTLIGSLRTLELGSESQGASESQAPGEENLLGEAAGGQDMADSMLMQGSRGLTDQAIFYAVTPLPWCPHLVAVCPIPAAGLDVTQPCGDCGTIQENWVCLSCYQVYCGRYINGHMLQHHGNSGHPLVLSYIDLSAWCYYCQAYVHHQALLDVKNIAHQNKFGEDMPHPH
Description: as §1, §2

HDAC8 = molecular target: T3, HDAC8 (Homo sapiens, UniProt Q9BY41); assay: HDAC Fluorometric Assay Kit enzyme activity assay, HDAC8
T3 construct: purchased Enzolifesciences
T3 sequence (Q9BY41 1-377): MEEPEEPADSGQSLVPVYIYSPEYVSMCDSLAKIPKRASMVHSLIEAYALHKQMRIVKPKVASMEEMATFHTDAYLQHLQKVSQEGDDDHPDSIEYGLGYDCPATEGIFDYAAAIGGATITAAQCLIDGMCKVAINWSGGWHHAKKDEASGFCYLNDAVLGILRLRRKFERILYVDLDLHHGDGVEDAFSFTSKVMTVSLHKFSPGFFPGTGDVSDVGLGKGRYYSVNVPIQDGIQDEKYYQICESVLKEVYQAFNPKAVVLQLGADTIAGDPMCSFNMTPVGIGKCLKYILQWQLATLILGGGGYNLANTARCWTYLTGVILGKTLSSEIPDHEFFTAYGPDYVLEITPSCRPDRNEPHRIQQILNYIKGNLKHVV
Description: as §1, §2

T1 sequence (O15379 whole entry, species assumed): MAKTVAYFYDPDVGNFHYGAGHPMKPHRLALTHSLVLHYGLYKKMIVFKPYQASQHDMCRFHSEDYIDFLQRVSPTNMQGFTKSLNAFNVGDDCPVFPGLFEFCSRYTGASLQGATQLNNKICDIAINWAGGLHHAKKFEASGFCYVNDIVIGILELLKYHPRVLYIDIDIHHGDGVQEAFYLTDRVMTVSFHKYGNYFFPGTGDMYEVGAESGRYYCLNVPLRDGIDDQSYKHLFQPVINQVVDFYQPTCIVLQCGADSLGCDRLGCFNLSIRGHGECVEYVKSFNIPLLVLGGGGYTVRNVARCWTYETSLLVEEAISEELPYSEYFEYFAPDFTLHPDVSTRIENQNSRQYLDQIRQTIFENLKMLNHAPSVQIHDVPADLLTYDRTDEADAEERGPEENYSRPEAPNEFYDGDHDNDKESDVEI
T1 sequence (O75376 395-489 partner limits assumed, species assumed): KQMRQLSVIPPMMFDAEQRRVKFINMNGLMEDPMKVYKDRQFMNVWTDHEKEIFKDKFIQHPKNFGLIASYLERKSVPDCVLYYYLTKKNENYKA

Cc1cc(F)ccc1OCCCC(=O)NO
selectively inhibited: IC50, inhibitory effect on HDAC3 (HDAC3) | IC50, inhibitory effect on HDAC6 (HDAC6) | IC50, inhibitory effect on HDAC8 (HDAC8)
